Test results from patent US8268827B2, “Pyridazinone derivatives as PARP inhibitors” (Istituto di Ricerche di Biologia Molecolare P. Angeletti …, priority 2007, dated 2012).
pIC50: −log10 of the molar value.

What was measured:
PARP-1 = target: T1, PARP-1 (Homo sapiens, UniProt P09874); experiment: PARP-1 TCA assay (inhibitory activity on human PARP-1); assay type: biochemical; details: human PARP-1, TCA assay
T1 construct: purchased Trevigen 4668-500-01
Method: Inhibitory Activity on Human PARP-1
The study was designed to determine the potency of compounds for inhibiting poly(ADP-ribosylation) by hPARP1 upon presentation of a nicked DNA (i.e. Activated Calf Thymus). The IC50 was determined in a TCA assay looking at the incorporation of [^3H]-NAD into the growing Poly-ADP-ribose (PAR) polymers and detection of the radioactivity incorporated in a polymer by scintillation counting.
A 96 wells polypropylene microplate was prepared with serial dilutions of compounds (10 point over a 0.1 nM-50 nM concentration range 5% DMSO, 5 uL) or 5% DMSO. The enzymatic reaction was conducted in the presence of 25 mM Tris-HCl pH8.0, 1 mM MgCl2, 50 mM KCl, 1 mM Spermine, 0.01% Nonidet P-40, 1 mM DTT, 1 ug/ml activated Calf Thymus DNA (Amersham Biosciences 27-4575) and 1 nM of human PARP-1 enzyme (Trevigen 4668-500-01). The reaction was initiated by adding 1 ug/ml Activated Calf Thymus DNA (Amersham Biosciences 27-4575), 0.4 ul (2.2×10^5DPM) of [^3H]-NAD (250uCi/ml, Perkin Elmer NET-443H) and 1.5 uM NAD (Sigma #N-1511) in a total reaction volume of 50 ul. After 2 hours incubation at room temperature, the reaction was stopped by the addition of TCA (50 uL, 20%) and NaPPi (20 mM) and incubated for 10 min over ice. The resulting precipitate was filtered on Unifilter GF/B microplate (Perkin Elmer) and washed four times with 2.5% TCA using Harvester Filtermate 196 (Perkin Elmer). After addition of 50 ul of Microscint 20 (Perkin Elmer) the amount of radioactivity incorporated into the PARP polymers was read for each well on Perkin Elmer Top Count. IC50 was calculated using 4P logistic fitting with ADA software based on the residual enzyme activity in the presence of increasing concentrations of compounds.

[1] = tested on: BRCA-1 silenced HeLa cells (HeLa shBRCA1-GFP); experiment: Proliferation assay in BRCA-1 silenced HeLa cells; assay type: cell-based; details: Homo sapiens, BRCA-1 silenced HeLa cells; for inhibition at 5 µM: read-out: % inh @ 5 uM (BRCA1-); for CC50: read-out: BRCA1- CC50
In short: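 Antiproliferative effect was read by Celltiter Blue fluorescence after 168 h of compound treatment at 37° C., 5% CO2. Cells were matched HeLa pairs, BRCA1-shRNA (>80% silenced, GFP) versus non-shRNA vector control, in DMEM with 10% FCS.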

[2] = tested on: ischemia and reperfusion of the heart; details: rabbits, cited from earlier work

T1 sequence (P09874 whole entry): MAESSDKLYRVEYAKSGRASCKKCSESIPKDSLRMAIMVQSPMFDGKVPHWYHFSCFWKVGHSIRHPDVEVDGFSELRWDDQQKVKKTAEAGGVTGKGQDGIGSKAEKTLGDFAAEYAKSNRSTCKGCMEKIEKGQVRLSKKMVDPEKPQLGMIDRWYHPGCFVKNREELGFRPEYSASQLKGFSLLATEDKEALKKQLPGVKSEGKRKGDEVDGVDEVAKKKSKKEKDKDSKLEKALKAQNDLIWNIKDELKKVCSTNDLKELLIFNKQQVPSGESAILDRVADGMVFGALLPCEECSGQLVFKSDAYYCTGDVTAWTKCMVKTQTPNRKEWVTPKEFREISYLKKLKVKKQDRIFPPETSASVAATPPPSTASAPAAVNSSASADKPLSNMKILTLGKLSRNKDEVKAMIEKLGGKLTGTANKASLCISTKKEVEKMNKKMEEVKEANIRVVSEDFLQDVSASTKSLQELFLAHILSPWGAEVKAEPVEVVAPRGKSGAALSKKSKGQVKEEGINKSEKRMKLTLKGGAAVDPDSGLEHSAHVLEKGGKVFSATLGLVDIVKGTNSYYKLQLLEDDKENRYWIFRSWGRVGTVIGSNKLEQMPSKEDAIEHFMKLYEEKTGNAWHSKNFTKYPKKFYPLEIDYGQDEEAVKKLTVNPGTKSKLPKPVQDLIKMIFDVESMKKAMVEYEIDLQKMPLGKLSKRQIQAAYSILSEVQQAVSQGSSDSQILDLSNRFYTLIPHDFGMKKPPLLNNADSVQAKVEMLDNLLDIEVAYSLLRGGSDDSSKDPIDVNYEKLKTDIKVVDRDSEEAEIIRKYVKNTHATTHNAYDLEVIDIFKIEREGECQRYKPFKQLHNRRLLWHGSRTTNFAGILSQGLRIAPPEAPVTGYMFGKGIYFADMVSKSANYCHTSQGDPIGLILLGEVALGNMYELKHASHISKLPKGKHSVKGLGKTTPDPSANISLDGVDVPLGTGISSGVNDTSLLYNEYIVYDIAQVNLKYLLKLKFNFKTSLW

SMILES | pIC50 (PARP-1) | inhibition at 5 µM [1] | CC50 [1] | reduction in infarct size ([2]; single injection 1 mg/kg) | reduction in infarct size in the heart ([2]; single injection 10 mg/kg, one minute before occlusion or one minute before reperfusion)
Cc1c(Cc2ccc(F)c(C(=O)N3CCN(c4ccc(F)cc4)CC3)c2)n[nH]c(=O)c1C | 7.70 | 52% |  |  | 
Cc1c(Cc2ccc(F)c(C(=O)N3CC=C(c4ccc(F)cc4)CC3)c2)n[nH]c(=O)c1C | 7.70 | 45% |  |  | 
Cc1c(Cc2ccc(F)c(C(=O)N3CCN(C4CCCCC4)CC3)c2)n[nH]c(=O)c1C | 8.13 |  | 400 nM |  | 
Oc1cccc2c(O)nccc12 [1,5-dihydroxyisoquinoline] |  |  |  | 38-48% | 
NC(=O)c1cccc(N)c1 [3-amino-benzamide] |  |  |  |  | 32-42%
Cc1c(Cc2ccc(F)c(C(=O)N3CCN(c4ccccc4)C(=O)C3)c2)n[nH]c(=O)c1C [drawing 25] | 9.00 |  | 18 nM |  | 
Cc1c(Cc2ccc(F)c(C(=O)N3CCN(c4ccc(F)cc4)C(=O)C3)c2)n[nH]c(=O)c1C [drawing 26] | 9.06 |  | 96 nM |  | 
Cc1c(Cc2ccc(F)c(C(=O)N3CCN(C4CCCCC4)C(=O)C3)c2)n[nH]c(=O)c1C [drawing 29] | 9.44 |  | 7 nM |  | 
